Each structure is given as a SMILES string.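 Test compounds were applied to cells in 96-well plates for 48 hours at 5 doses. TGI: concentration producing complete growth inhibition.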

What all share (experiment): growth of human tumour cells (NCI), 48 h
The test system of experiment [1] is CAKI-1 renal.
In experiment [2] the test system is DU-145 prostate.
Experiment [3] has as its system HL-60(TB) leukemia.
In experiment [4] the test system is K-562 leukemia.
In experiment [5] the test system is KM12 colon.
Experiment [6] deals with LOX IMVI melanoma.
Experiment [7] deals with MDA-N.
The test system of experiment [8] is NCI-H522 lung.
Experiment [9] deals with OVCAR-4 ovarian.
The subject of experiment [10] is SR leukemia.

As to `COc1ccccc1NCC(=O)Nn1c(C)nc2ccc(S(=O)(=O)Nc3ccccc3OC)cc2c1=O`, the TGI in [1], in experiment [2], in [3], in experiment [4], in experiment [5] and in experiment [6] was > 100 µM in each case. Moreover, the TGI in experiment [7], in experiment [8], in experiment [9] and in experiment [10] was > 100 µM throughout.

In the case of `CCOC(=O)CC[C@H](N)C(=O)N[C@H](Cc1ccc(N(CCCl)CCCl)cc1)C(=O)OCC`, the TGI in experiment [1] was 4.03 µM; in experiment [2] it was 3.77 µM; in experiment [3] it was 38.9 µM; in [4], > 100 µM; in [5], 15.9 µM; in experiment [6], > 39.1 µM. Besides, the TGI was > 43.4 µM in experiment [7], 6.76 µM in experiment [8], 11.2 µM in experiment [9] and > 33.6 µM in experiment [10].

Consider `O=C1N[C@@H](COc2ccc(C=Nc3ccc(CCc4ccc(N=Cc5ccc(OC[C@@H]6COC(=O)N6)cc5)cc4)cc3)cc2)CO1`, for which the TGI in experiment [1], in experiment [2], in experiment [3], in experiment [4], in experiment [5] and in experiment [6] was > 100 µM each time. The TGI in experiment [7], in experiment [8], in experiment [9] and in experiment [10] was > 100 µM in each case.

As for `CC(=O)OCC1OC(N2C(S)=C(C#N)C(c3ccco3)C(C(C)=O)=C2c2ccccc2)C(OC(C)=O)C(OC(C)=O)C1OC(C)=O` (stereo not given), the TGI in [1], in experiment [2], in experiment [3], in experiment [4], in [5] and in experiment [6] was > 100 µM throughout. Moreover, the TGI in experiment [7] was > 100 µM; in experiment [8], > 100 µM; in experiment [9] it was 44.8 µM; in experiment [10], > 100 µM.

On to `COc1ccccc1NS(=O)(=O)c1ccc2ncn(NS(=O)(=O)c3ccc(Cl)cc3)c(=O)c2c1`, for which the TGI in experiment [1], in experiment [2], in experiment [3], in experiment [4], in [5] and in experiment [6] was > 100 µM throughout. Besides, the TGI in [7], in experiment [8], in [9] and in experiment [10] was > 100 µM each time.

In the case of `CCCCNC(=S)Nc1nc(C(=O)NNC(=O)c2ccccc2)cs1`, the TGI was 39 µM in experiment [1]; 53.4 µM in experiment [2]; > 100 µM in experiment [3]; > 100 µM in experiment [4]; 36.9 µM in experiment [5]; 21.7 µM in experiment [6]. Further, the TGI is 39.4 µM in experiment [7], 43.7 µM in experiment [8], > 100 µM in [9] and > 100 µM in [10].

`CN(C)CCn1nc(N)c2nc3cc(C(F)(F)F)ccc3nc21`: the TGI in experiment [1], in [2], in experiment [3], in experiment [4], in [5] and in [6] was > 100 µM throughout. For the same molecule, the TGI in [7], in [8], in experiment [9] and in experiment [10] was > 100 µM each time.

Turning to `C=CCN1CCC2(CC1)NC(=O)c1ccccc1O2`, the TGI in experiment [1], in [2], in experiment [3], in [4], in experiment [5] and in [6] was > 100 µM each time. For the same molecule, the TGI in experiment [7], in experiment [8], in [9] and in [10] was > 100 µM throughout.

As for `C=CC(Br)(CBr)CCC(Br)C(C)C` (stereo not given), the TGI amounted to 16.3 µM in experiment [1]; 22.8 µM in experiment [2]; 2.04 µM in experiment [3]; 6.94 µM in [4]; 4.83 µM in [5]; 3.1 µM in experiment [6]. The TGI in [7] was determined as 6.37 µM; in experiment [8], 3.46 µM; in experiment [9], 17.9 µM; in experiment [10], 3.99 µM.

In the case of `C=CCC(CNC(=O)OCc1ccccc1)OC(=O)OCc1ccccc1` (stereo not given), the TGI in [1], in experiment [2], in experiment [3], in experiment [4], in [5] and in experiment [6] was > 100 µM throughout. The TGI is > 100 µM in experiment [7], > 100 µM in [8], > 100 µM in experiment [9] and 62 µM in [10].

In the case of `Nc1ccc(-c2nc3ccccc3s2)cc1Br`, the TGI in experiment [1], in experiment [2], in experiment [3], in [4], in experiment [5] and in experiment [6] was > 100 µM each time. Also, the TGI in experiment [7], in [8], in experiment [9] and in [10] was > 100 µM throughout.

Take `N=C(c1cccs1)C1(N2CCCCC2)CCCCC1`: the TGI in [1] stood at 32.9 µM; in [2], 30.4 µM; in [3], 33.6 µM; in [4], 32 µM; in experiment [5], 34.6 µM; in experiment [6], 47.9 µM. For the same molecule, the TGI is > 100 µM in [7], 30.9 µM in experiment [8], 54.9 µM in [9] and 37.1 µM in experiment [10].

On to `OC1c2ccccc2C(O)C2OC12` (stereo not given), for which the TGI in experiment [1], in experiment [2], in [3], in [4], in [5] and in experiment [6] was > 100 µM in each case. The TGI in experiment [7], in [8], in experiment [9] and in [10] was > 100 µM in each case.

As to `CC1(C)CC[C@]2(C(=O)O)[C@H](O)C[C@]3(C)C(=CC[C@@H]4[C@@]5(C)CC[C@H](OC6OC(C(=O)O)C(O)C(O)C6O)C(C)(C)[C@@H]5CC[C@]43C)[C@@H]2C1` (stereo not given in full), the TGI was > 100 µM in experiment [1]; > 100 µM in experiment [2]; 44.9 µM in [3]; > 100 µM in experiment [4]; > 100 µM in experiment [5]; > 100 µM in experiment [6]. Besides, the TGI in experiment [7] is > 100 µM; in experiment [8], > 100 µM; in experiment [9], 58.4 µM; in experiment [10] it was 46.7 µM.

Turning to `COCCNC1CCC2(SCCS2)c2[nH]c3ccccc3c21` (stereo not given), the TGI in experiment [1] was > 100 µM; in experiment [2], > 100 µM; in experiment [3] it was 45.8 µM; in experiment [4], > 100 µM; in experiment [5], 40.5 µM; in [6], 36 µM. The TGI is 57.9 µM in [7], > 100 µM in experiment [8], > 100 µM in [9] and 69.9 µM in experiment [10].

For the molecule `C=C1c2nc3ccccc3n2C=C(c2ccc(OC)cc2)N1c1ccc(OCCN2CCOCC2)cc1`, the TGI in experiment [1] is > 100 µM; in [2], > 100 µM; in experiment [3], > 34.8 µM; in [4], > 100 µM; in [5], > 100 µM; in [6], > 100 µM. Also, the TGI in experiment [7] was > 100 µM; in [8], 3.63 µM; in [9], > 100 µM; in experiment [10] it was > 55.2 µM.

Consider `CC(C)c1cccc(C(C)C)c1OS(=O)(=O)NC(=O)OC(C(F)(F)F)C(F)(F)F`, for which the TGI in [1] is > 100 µM; in [2], > 100 µM; in experiment [3], > 100 µM; in experiment [4] it was 66.6 µM; in experiment [5], > 100 µM; in [6] it was > 100 µM. Besides, the TGI in [7], in experiment [8], in [9] and in experiment [10] was > 100 µM in each case.

With `CC[C@H](C)C1=C(OC(C)=O)[N@+]2([O-])Oc3ccc(-c4c(OC(C)=O)c(OC(C)=O)c(-c5ccc(OC(C)=O)cc5)c(OC(C)=O)c4OC(C)=O)cc3O[C@]2([C@@H](C)CC)C(=O)N1OC(C)=O`, the TGI in [1] is > 50 µM; in experiment [2], > 50 µM; in [3], 21.7 µM; in experiment [4], > 50 µM; in [5], > 50 µM; in [6], 22.1 µM. The TGI in [7] was > 50 µM; in experiment [8], 16 µM; in experiment [9] it was 39.6 µM; in experiment [10] it was 28 µM.

Consider `O=S(=O)(/N=C(\NO)Nc1ccc(Cl)cc1)c1ccc(-c2ccccn2)s1`, for which the TGI in experiment [1] is 66 µM; in experiment [2] it was > 100 µM; in [3] it was > 100 µM; in [4], > 100 µM; in experiment [5] it was > 100 µM; in [6], > 100 µM. The TGI was 94.5 µM in experiment [7], 31.8 µM in experiment [8], > 100 µM in experiment [9] and > 100 µM in experiment [10].

Turning to `CCOP(=O)(OCC)C(Nc1ccc(F)cc1)c1ccccc1` (stereo not given), the TGI in experiment [1], in experiment [2], in experiment [3], in experiment [4], in experiment [5] and in [6] was > 100 µM each time. For the same molecule, the TGI in experiment [7], in [8], in [9] and in [10] was > 100 µM throughout.

The values above are taken from PubChem BioAssay (NCI).
